Several values for one entry are separate records, joined by “and”; a condition that tells them apart may be missing. Identical values can stand only once. Entries after “also recorded” stand apart in the source; their conditions may differ. Like-named read-outs stand apart in the source and are kept apart here. Blank lines part the entries; values can stand above or below the molecule they belong to.
Experiments:
[1] = molecular target: T1, amyloid plaques (Homo sapiens, UniProt P05067); assay: Inhibition of ^125I-IMPY binding in AD brain homogenates; settings: read-out: Binding Affinity (Ki vs. ^125I-IMPY)
T1 sequence (P05067 672-711 limits assumed): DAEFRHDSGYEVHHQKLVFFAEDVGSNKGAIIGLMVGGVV
Experimental: Thus, inhibition of ^125I-IMPY binding in human AD brain homogenates was taken as an assay for the potential of test compounds to bind to amyloid plaques.
Postmortem brain tissue was obtained and neuropathological diagnosis was confirmed in accordance with the NIA-Reagan Institute Consensus Group criteria. Homogenates were then prepared from dissected gray matter, pooled in phosphate buffered saline and aliquoted into 1-ml portions (100 mg wet tissue/ml), which could be stored at −70° C. for 3-6 months without loss of binding signal.
(§1) For the binding assays brain homogenates were incubated with ^125I-IMPY (0.04-0.06 nM diluted in phosphate buffered saline (PBS)) and test compound (10^−5-10^−10 M diluted in PBS containing 0.1% bovine serum albumin (BSA)). […] The bound and free radioactivity was separated by vacuum filtration followed by 2×3 ml washes of PBS. Filters containing the bound ^125I ligand were assayed in a gamma counter.
as §1, with “in PBS)” for “in phosphate buffered saline (PBS))”, “0.1% BSA).” for “0.1% bovine serum albumin (BSA)).”, “bound […],” for “bound ^125I”

[2] = test system: 46 CNS and Cardiovascular receptor binding sites; assay: Binding at CNS and Cardiovascular Receptors (panel of 46 sites); settings: 1 μM; inhibition >50% considered significant
Experimental: A panel of 46 CNS and Cardiovascular receptor binding sites, including adenosine, adrenergic, benzodiazepine, bombesin, dopamine, GABA, melatonin, muscarinic, neurotensin, nicotininc acetylcholine, opiate, potassium channel, serotonin, sigma, and several transporter subtypes, was tested for binding of Compound 15. […] Inhibition of binding in excess of 50% by Compound 15 was considered potentially significant.

[3] = Organ distribution in normal mice after i.v. injection; assay type: in vivo; settings: for Biodistribution Brain (% dose/g in brain) / % total counted / % total recovered / Biodistribution Brain: normal male mice; for Brain penetration and clearance: normal mice
Experimental: While under isoflurane anesthesia, 0.15 ml of a 0.9% saline solution containing ^123I-15 (5-10 μCi) was injected directly into the tail vein of ICR mice (22-25 g, male). The mice (n=3 for each time point) were sacrificed, the organs of interest were removed, weighed, and assayed with an automatic gamma counter. The percentage dose per organ was calculated by a comparison of the tissue counts to suitably diluted aliquots of the injected material. Total activities of blood were calculated under the assumption that they were 7% of the total body weight. The % dose/g of samples was calculated by comparing the sample counts with the count of the diluted initial dose. […] Similar results were obtained in female mice.
While under isoflurane anesthesia, 0.15 ml of a 0.9% saline solution containing ^123I-1b-3 (5-10 μCi) was injected directly into the tail vein of ICR mice (22-25 g, male and female) The mice (n=3 for each time point per sex) were sacrificed, the organs of interest were removed, weighed, and assayed with an automatic gamma counter. The percentage dose per organ was calculated by a comparison of the tissue counts to suitably diluted aliquots of the injected material. Total activities of blood were calculated under the assumption that they were 7% of the total body weight. The % dose/g of samples was calculated by comparing the sample counts with the count of the diluted initial dose.

[4] = test system: Aβ plaques; assay: Film autoradiography of AD brain sections; assay type: binding, human; settings: tracer concentrations, post-mortem AD brain sections
Experimental: (§2) Brain sections from a patient with AD were frozen in powdered dry ice and cut into 20 μm thick sections. The sections were incubated with ^123I-15 (200,000-250,000 cpm/200 μl) for 1 hour at room temperature. The sections were then dipped in saturated Li2CO3 in 40% EtOH (2×2 min. washes) and washed with 40% EtOH (1×2 min. wash) followed by rinsing with water for 30s. After drying, the ^123I-labeled sections were exposed to Kodak MR film overnight.
as §2, with “Brains” for “Brain”, “patients” for “a patient”, “^123I-1b-3” for “^123I-15”, “30 s.” for “30s.”

[5] = physchem; settings: pH 7.4
Experimental: (§3) Partition coefficients were measured by mixing ^123I-15 with 3 g each of 1-octanol and buffer (0.1 M phosphate, pH 7.4) in a test tube. The test tube was vortexed for 3 min at room temperature, followed by centrifugation for 5 min. Two weighed samples (0.5 g each) from the 1-octanol and the buffer layer were counted in a well counter. The partition coefficient was determined by calculating the ratio of cpm/g of 1-octanol to that of the buffer. Samples from the 1-octanol layer were repartitioned until consistent partitions of coefficient values were obtained from the third partition. The measurement was done in triplicate and repeated three times.
(§4) The test tube was vortexed for 3 min at room temperature, followed by centrifugation for 5 min. Two weighed samples (0.5 g each) from the 1-octanol and the buffer layer were counted in a well counter. The partition coefficient was determined by calculating the ratio of cpm/g of 1-octanol to that of the buffer. Samples from the 1-octanol layer were repartitioned until consistent partitions of coefficient values were obtained from the third partition. The measurement was done in triplicate and repeated three times.

[6] = molecular target: fibrillar Aβ aggregates (Homo sapiens, UniProt P05067); settings: read-out: Inhibition constants (Ki) for binding to fibrillar Aβ aggregates; cited from earlier work
Chain of fibrillar Aβ aggregates (P05067 672-711 limits assumed): as above

[7] = molecular target: T1, amyloid plaques; settings: AD brain homogenates; other amyloid plaque ligands; read-out: Binding Affinity (Ki vs. ^125I-IMPY), published values; cited from earlier work
[8] = molecular target: AD cortical homogenates; settings: cited from earlier work
[9] = Partition coefficient 1-octanol/buffer; settings: 1-octanol / 0.1 M phosphate buffer pH 7.4
Experimental: as §3, §4

[10] = Estimate of human dosimetry extrapolated from mouse data; settings: proposed 5 mCi human dose, extrapolation from mouse data

Ki [1]: 9 ± 1.8 nM
Biodistribution Brain (% dose/g in brain) ([3]; 2 min): 2.0 ± 0.4 % dose/g
Biodistribution Brain (% dose/g in brain) ([3]; 60 min): 0.51 ± 0.09 % dose/g
Compound: CNc1ccc(/C=C/c2ccc(OCCOCCOCCF)c(I)c2)cc1 [Compound 1b-3, (E)-4-(4-(2-(2-(2-fluoroethoxy)ethoxy)ethoxy)-3-iodostyryl)-N-methylbenzenamine]
Selectivity (binding to CNS/CV receptors) [2]: No high affinity binding to any CNS receptors

% total counted / % total recovered ([3]; 2 min): 86.65 ± 1.34%
Biodistribution Brain ([3]; 2 min): 1.49 ± 0.12 % dose/organ
Biodistribution Brain (% dose/g in brain) ([3]; 2 min): 3.4 % dose/g and 3.40 ± 0.31 % dose/g
% total counted / % total recovered ([3]; 60 min): 87.53 ± 4.57%
Biodistribution Brain ([3]; 60 min): 0.21 ± 0.01 % dose/organ
Biodistribution Brain (% dose/g in brain) ([3]; 60 min): 0.43 % dose/g and 0.43 ± 0.05 % dose/g
% total counted / % total recovered ([3]; 120 min): 79.41 ± 5.56%
% total counted / % total recovered ([3]; 180 min): 79.46 ± 5.15%
Estimated human effective dose (ED): approximately 1.1 rem
logD [5]: 2.4
logP [5]: 2.39
Compound: CNc1ccc(/C=C/c2cc([123I])cc(OCCO)c2)cc1 [^123I-15]
Labeling of Aβ plaques in AD brain sections [4]: specifically labeled Aβ plaques
Brain penetration and clearance [3]: readily penetrates and is rapidly cleared from the brain

Ki [1]: 6.7 ± 0.3 nM
Biodistribution Brain (% dose/g in brain) ([3]; 2 min): 4.8 ± 0.2 % dose/g
Biodistribution Brain (% dose/g in brain) ([3]; 60 min): 1.5 ± 0.2 % dose/g
Compound: CNc1ccc(/C=C/c2ccc(OCCOCCOCCF)cc2)cc1 [Compound 3, (E)-4-(2-(6-(2-(2-(2-fluoroethoxy)ethoxy)ethoxy)phenyl)-vinyl)-N-methylbenzamine, reference compound]
Selectivity (binding to CNS/CV receptors) [2]: No high affinity binding to any CNS receptors

Compound: O=C(O)c1cc(/N=N/c2ccc(-c3ccc(/N=N/c4ccc(O)c(C(=O)O)c4)cc3)cc2)ccc1O [CG, chrysamine-G]
Ki [6]: 370 nM

Compound: CC(=C(C#N)C#N)c1ccc2cc(N(C)CC[18F])ccc2c1 [FDDNP, 2-(1-{6-[(2-[^18F]fluoroethyl)(methyl)amino]-2-naphthyl}ethylidene)malononitrile]
Ki [7]: 239 nM

Compound: CNc1ccc(/C=C/c2ccc(O)cc2)cc1 [[^3H]SB-13]
Kd [8]: 2.4 ± 0.2 nM

Compound: CNc1ccc(/C=C/c2ccc(OCCOCCOCCF)c([123I])c2)cc1 [^123I-1b-3]
Labeling of Aβ plaques in AD brain sections [4]: specifically labeled Aβ plaques; also recorded: colocalize with plaque staining by Congo Red
% total counted / % total recovered ([3]; 2 min): 82.20 ± 6.38%
Biodistribution Brain ([3]; 2 min): 1.01 ± 0.16 % dose/organ
Biodistribution Brain (% dose/g in brain) ([3]; 2 min): 2.0 % dose/g and 2.05 ± 0.41 % dose/g
% total counted / % total recovered ([3]; 60 min): 83.26 ± 6.99%
Biodistribution Brain ([3]; 60 min): 0.26 ± 0.05 % dose/organ
Biodistribution Brain (% dose/g in brain) ([3]; 60 min): 0.51 % dose/g and 0.51 ± 0.09 % dose/g
% total counted / % total recovered ([3]; 120 min): 83.56 ± 6.29%
% total counted / % total recovered ([3]; 180 min): 79.15 ± 6.31%
Brain penetration and clearance [3]: readily penetrates and is rapidly cleared from the brain
Partition coefficient [9]: 432
logP [9]: 2.63
Estimated exposure of lower large intestine [10]: approximately 4.04 rem
Estimated exposure of upper large intestine [10]: ~3.55 rem
Estimated human effective dose (ED) [10]: 1.1 rem

— patent publication US20080253967A1, “Halo-Stilbene Derivatives And Their Use For Binding And Imaging Of Amyloid Plaques” (priority 2007, published 2008)
